Reference: patent publication US11000601B2, “Conjugated biological molecules, pharmaceutical compositions and methods” (OBI Pharma, Inc., priority 2016, dated 2021)
Several values for one entry are separate records, joined by “and”; a condition that tells them apart may be missing. Equal values may be shown once. Square brackets hold non-standard residues; d marks the D form. Peptide text beside a SMILES is read from it. * marks the point of attachment. Dolaproine = CO[C@@H]([C@@H]1CCCN1)[C@@H](C)C(=O)O; Dil = CC[C@H](C)[C@H](NC)[C@@H](CC(=O)O)OC; X1 = C[C@@H](N*)[C@@H](O)c1ccccc1; NMeV = CN[C@H](C(=O)O)C(C)C

Test: Body weight, mortality and signs of overt toxicity in MCF-7 implanted female nude (nu/nu) mice
Assay type: in vivo, mouse
Details: for Body Weight (g), individual animals No. 1-6: single animal; for Body Weight (g), individual mice: individual mice No. 1-6
Method: In a xenograft tumor model of human breast adenocarcinoma, MCF-7 (ATCC HTB-22) cells were subcutaneously (SC) implanted (2.0×10^7 cells in 1:1 matrigel/media mixture at 0.2 mL/mouse) into the right flank of female athymic (nu/nu) nude mice. Supplemental injections of estradiol cyclopentyl propionate (100 μg/mouse) were administered subcutaneously between the scapulae twice weekly, from one week prior to cell implantation to study completion. Tumor-implanted mice were divided into eleven treatment groups, each group containing six animals, and test agent administrations were initiated one day after cell implantation (denoted as Day 1). 3.1 Test Substances and Dosing Pattern
Two control groups received intravenous injections of vehicle (25 mM Sodium Citrate, pH 6.5+100 mM NaCl) once weekly for either six weeks (group 1) or two weeks (group 2).
Female (nu/nu) nude mice aged 6-7 weeks obtained from BioLasco Taiwan (under Charles River Laboratories Licensee) were used. The animals were housed in individually ventilated cages (IVG, 36 Mini Isolator System). The allocation for 3-5 animals was 27×20×14 in cm. All animals were maintained in a hygienic environment under controlled temperature (20-24° C.) and humidity (30-70%) with 12-hour light/dark cycle. Free access to standard lab diet (Oriental Yeast Co., Ltd., Japan) and autoclaved tap water were granted. All aspects of this work including housing, experimentation, and animal disposal were performed in general accordance with the “Guide for the Care and Use of Laboratory Animals: Eighth Edition” (National Academies Press, Washington, D.C., 2011) in our AAALAC-accredited laboratory animal facility. In addition, the animal care and use protocol was reviewed and approved by the IACUC at Eurofins Panlabs Taiwan, Ltd.
The tumor volumes, body weights, mortality, and signs of overt toxicity were monitored and recorded twice weekly for 77 days. Tumor volume (mm^3) was calculated according to the formula for a prolate ellipsoid: length (mm)×[width (mm)]^2×0.5. Tumor growth inhibition was calculated as T/C (treatment/control)×100%. A T/C value≤42% was considered significant anti-tumor activity. Two-way ANOVA followed by Bonferroni test was used to ascertain the statistical significance of groups compared to respective vehicle control (*p<0.05).

CC[C@H](C)[C@@H]([C@@H](CC(=O)N1CCC[C@H]1[C@H](OC)[C@@H](C)C(=O)N[C@H](C)[C@@H](O)c1ccccc1)OC)N(C)C(=O)[C@@H](NC(=O)[C@@H](NC)C(C)C)C(C)C [MMAE, monomethyl auristatin E] (H-[NMeV]V[Dil][Dolaproine]-X1)
Body Weight (g), individual animals No. 1-6 (0.057 mg/kg × 6, IV once weekly, Day 53): 26 g (3×) and 28 g and 22 g and 24 g
Body Weight (g), individual animals No. 1-6 (0.057 mg/kg × 6, IV once weekly, Day 56): 24 g and 27 g and 26 g (2×) and 23 g and 25 g
Body Weight (g), individual animals No. 1-6 (0.057 mg/kg × 6, IV once weekly, Day 60): 27 g (3×) and 28 g and 24 g and 26 g
Body Weight (g), individual animals No. 1-6 (0.057 mg/kg × 6, IV once weekly, Day 63): 27 g (2×) and 26 g (2×) and 29 g and 24 g
Body Weight (g), individual animals No. 1-6 (0.057 mg/kg × 6, IV once weekly, Day 67): 27 g (2×) and 28 g (2×) and 26 g and 25 g
Body Weight (g), individual animals No. 1-6 (0.057 mg/kg × 6, IV once weekly, Day 70): 27 g and 28 g (2×) and 25 g (2×) and 26 g
Body Weight (g), Mean (0.057 mg/kg × 6, IV once weekly, Day 74, group mean): 26.7 g
Body Weight (g), individual animals No. 1-6 (0.057 mg/kg × 6, IV once weekly, Day 74): 27 g (2×) and 29 g and 24 g and 25 g and 28 g
Body Weight (g), individual animals No. 1-6 (0.057 mg/kg × 6, IV once weekly, Day 77): 28 g and 29 g and 23 g and 27 g (2×) and 24 g
Body Weight (g), individual mice (0.057 mg/kg × 6 IV once weekly, Day 1): 23 g (2×) and 22 g (2×) and 24 g and 21 g
Body Weight (g), Mean (0.057 mg/kg × 6 IV once weekly, Day 1, mean of 6 mice): 22.5 g
Body Weight (g), individual mice (0.057 mg/kg × 6 IV once weekly, Day 5): 24 g (3×) and 22 g (3×)
Body Weight (g), Mean (0.057 mg/kg × 6 IV once weekly, Day 5, mean of 6 mice): 23.0 g
Body Weight (g), individual mice (0.057 mg/kg × 6 IV once weekly, Day 8): 26 g and 23 g (2×) and 24 g (2×) and 25 g
Body Weight (g), Mean (0.057 mg/kg × 6 IV once weekly, Day 8, mean of 6 mice): 24.2 g
Body Weight (g), individual mice (0.057 mg/kg × 6 IV once weekly, Day 12): 26 g and 24 g (2×) and 25 g (3×)
Body Weight (g), individual mice (0.057 mg/kg × 6 IV once weekly, Day 15): 27 g and 25 g (4×) and 26 g
Body Weight (g), individual mice (0.057 mg/kg × 6 IV once weekly, Day 19): 26 g and 24 g and 25 g (4×)
Body Weight (g), Mean (0.057 mg/kg × 6 IV once weekly, Day 19, mean of 6 mice): 25.0 g
Body Weight (g), individual mice (0.057 mg/kg × 6 IV once weekly, Day 22): 27 g and 25 g (2×) and 24 g and 26 g (2×)
Body Weight (g), individual mice (0.057 mg/kg × 6 IV once weekly, Day 26): 27 g and 25 g (2×) and 24 g (2×) and 26 g
